# How the values were obtained:
# Parameters in all cases: species or system AML cell lines (8); Primary HTS, single concentration about 10 uM, Cell Titer Glo viability; log10 luminescence, per cent inhibition relative to cycloheximide control
# Conditions in all cases: 72 h, relative to cycloheximide control, log10 luminescence; inhibitor
# [1] = tested on: U937
# [2] = tested on: M07e
# [3] = tested on: CMS
# [4] = tested on: CMK
# [5] = tested on: MV4-11
# [6] = tested on: CHRF288-11
# [7] = tested on: ML-2
# [8] = tested on: MOLM-13
SMILES,U937 %inh [1] [%],M07e %inh [2] [%],CMS %inh [3] [%],CMK %inh [4] [%],MV4-11 %inh [5] [%],CHRF288-11 %inh [6] [%],ML-2 %inh [7] [%],MOLM-13 %inh [8] [%]
"CC1=C(C(=O)Nc2ccc3[nH]ncc3c2)C(c2ccc3ccccc3c2)CC(=O)N1 (stereo not shown) [SJ000573139-1, KG204183-124A1]",2.011,1.439,1.368,48.89,30.46,15.76,11.01,1.247
"NS(=O)(=O)c1ccc(-c2ccc3c(NC(=O)C4CC4)n[nH]c3c2)cc1 [SJ000573140-1, VB100064-161A1]",-0.5779,-0.07238,-3.489,-4.867,-0.6023,4.361,0.5159,-3.649
"CNC(=O)Oc1cc(C)c(/C=C/c2cncc(C(=O)NC)c2)c(C)c1 [SJ000573141-1, U11962/26/1]",0.6726,6.045,-0.3622,8.893,1.51,7.117,1.2,3.548
"Nc1nccc(-c2c(-c3ccc(F)cc3)nn3cc(C(F)(F)F)ccc23)n1 [SJ000573142-1, U14741/95/1]",-1.917,93.92,-0.8913,-0.4076,-1.787,1.132,1.904,0.5656
"N#Cc1ccc2c(-c3ccnc(NC4CC4)n3)c(-c3ccc(F)cc3)nn2c1 [SJ000573143-1, U15304/34/1]",0.4809,7.135,2.587,2.803,-1.164,-0.1104,1.142,2.3
"Fc1ccc(-c2ncn(CCCN3CCOCC3)c2-c2ccncc2)cc1 [SJ000573144-1, LDD-19018-277B]",-0.4661,0.1764,-0.05724,29.46,-0.2277,5.233,2.361,2.986
"O=C(Nc1n[nH]c2nc(-c3ccco3)c(Br)cc12)C1CC1 [SJ000573145-1, AG201339-071A1]",-0.3135,-5.829,6.31,0.1482,10.91,-1.607,-0.5766,0.2319
"CN(C)CCCn1c(-c2nonc2N)nc2cnccc21 [SJ000573146-1, NB100580-138A1]",0.1912,-3.074,-2.565,9.262,-1.385,-1.122,-0.381,-2.29
"O=C(Nc1n[nH]c2cc(-c3ccc(F)cc3)ccc12)C1CC1 [SJ000573147-1, VB100064-137A1]",28.55,6.083,-1.795,55.62,-2.4,23.72,9.118,13.56
"O=C1NC(=O)C(c2ccc(Cl)cc2)=C1Nc1ccc(Cl)c(C(=O)O)c1 [SJ000573148-1, DH98298-170B2]",-3.231,-2.934,-1.744,-5.939,-6.646,-1.873,0.6305,-3.138
"O=C(Nc1ccc(Oc2ccc3[nH]c(NC(=O)c4ccccc4)nc3c2)cc1)Nc1cc(C(F)(F)F)ccc1F [SJ000573149-1, T261/94/4]",43.21,22.27,32.92,59.46,91.44,9.652,33.71,108.7
"CS(=O)(=O)CCNCc1ccc(-c2ccc3ncnc(Nc4ccc(OCc5cccc(F)c5)c(C(F)(F)F)c4)c3c2)o1 [SJ000573152-1, U14859/108/1]",2.673,0.4672,-1.451,-0.9918,3.001,2.26,2.813,2.035
"O=C(Nc1n[nH]c2nc(-c3ccc(O)cc3)c(Br)cc12)C1CC1 [SJ000573153-1, AN100368-079A1]",31.9,20.28,105,121.4,59.64,61.88,13.84,85.66
"c1ccc(Oc2ccc(Nc3ncc(-c4ccccc4)o3)cc2)cc1 [SJ000573154-1, U15924/95/2]",3.231,-0.6223,-3.51,-2.277,-2.884,-6.587,0.5718,-2.365
"COc1cccc(-n2ncc3c(N/N=C/c4ccc(C(=O)NCCN(C)C)cc4)ncnc32)c1 [SJ000573155-1, U16945/190/1]",26.01,23.03,51.58,38.62,45.9,128.6,12.67,33.75
"CCn1c(-c2nonc2N)nc2ccccc21 [SJ000573156-1, U17602/18/1 | JT100597-005A1]",-1.491,0.4432,-3.86,-4.724,-3.157,-4.898,2.051,-2.502
"Cc1cc(-c2ccco2)cc(C)c1/C=C/c1cncc(-c2nn[nH]n2)c1 [SJ000573157-1, T209/165/1]",-2.587,4.709,1.933,-3.964,-0.5767,6.913,0.8109,-1.72
"COC(=O)Nc1nc2ccc(Oc3ccc(NC(=O)Nc4cccc(Cl)c4)cc3)cc2[nH]1 [SJ000573158-1, T278/6/1]",93.62,46.36,11.78,60.27,87.76,9.893,61.89,98.07
"ON=C1CCc2cc(-c3nc(C4CCNCC4)[nH]c3-c3ccncc3)ccc21 [SJ000573159-1, DD48690-004A1]",-1.918,1.161,1.757,-2.711,-4.441,-1.561,3.813,2.332
"O=C(O[C@H]1CN[C@H](C#Cc2cc3ncnc(Nc4ccc5c(ccn5Cc5cc(F)ccc5F)c4)c3s2)C1)N1CCOCC1 [SJ000573160-1, U20298/150/2]",14.13,-0.7728,12.05,5.697,8.297,10.62,4.843,10.52
"Nc1nonc1-c1nc2cnccc2n1C1CC1 [SJ000573161-1, SD100950-085A1]",17.71,-4.33,4.949,26.4,17.34,4.079,6.372,2.819
"COC(=O)Nc1nc2cc(Oc3ccc(NC(=O)Nc4cccc(C(=O)O)c4)cc3)ccc2[nH]1 [SJ000573163-1, T261/87/3]",31.9,13.83,3.532,83.28,11.57,17.31,30.21,34.2
"NC(=O)c1cccc(Nc2nccc(Nc3cccc(F)c3)n2)c1 [SJ000573164-1, R5869/121/5]",1.036,12.07,5.376,19.08,21.87,8.575,3.111,57.29

# Reference: article PMC6522510 (Nature Communications, 2019)
